Results: patent US20080031903A1, “METHOD OF TREATING OCULAR INFECTIONS” (priority 2006, published 2008)
“And” between values parts separate entries of the source, which are not always exact repeats. Equal values may be shown once. “Also recorded” adds a separate entry of the source.

Tested on: Ad5
Experiment: Ad5/NZW rabbit ocular model, Example 5 (IG-Ad-R3)
Assay type: in vivo
Protocol: Additional experiments were conducted substantially as described in Example 3, in order to determine the antiviral efficacy of a 100 mg/ml solution of IG (intravenous Immune Globulin) in the Ad5/NZW rabbit ocular model.

[1] = Days 1-5, Early Phase of Infection
[2] = Days 7-14, Late Phase of Infection

`Nc1ccn(C[C@@H](CO)OCP(=O)(O)O)c(=O)n1` [0.5% Cidofovir, Cidofovir] was tested, and the “Ad5 ocular viral titer, individual eye” value (D 0, before treatment) was 1050 pfu/ml and 50 pfu/ml and 1350 pfu/ml and 1200 pfu/ml and 30 pfu/ml and 6300 pfu/ml and 20 pfu/ml and 600 pfu/ml and 750 pfu/ml and 140 pfu/ml, the “Ad5 ocular viral titer, individual eye” value (D 1) was 35 pfu/ml and 10 pfu/ml and 550 pfu/ml and 5 pfu/ml and 500 pfu/ml and 60 pfu/ml and 200 pfu/ml and 700 pfu/ml (2×) and 400 pfu/ml and the “Ad5 ocular viral titer, individual eye” value (D 3) was 1500 pfu/ml and 5 pfu/ml and 2900 pfu/ml (2×) and 105 pfu/ml and 2600 pfu/ml and 1350 pfu/ml and 1600 pfu/ml and 4500 pfu/ml and 3500 pfu/ml. The “Ad5 ocular viral titer, individual eye” value (D 4) was 0 pfu/ml (2×) and 5 pfu/ml and 750 pfu/ml and 1100 pfu/ml and 400 pfu/ml and 1150 pfu/ml and 7100 pfu/ml and 2000 pfu/ml and 1900 pfu/ml, the “Ad5 ocular viral titer, individual eye” value (D 5) was 15 pfu/ml and 0 pfu/ml (2×) and 750 pfu/ml and 5 pfu/ml and 1400 pfu/ml and 700 pfu/ml and 600 pfu/ml and 850 pfu/ml and 950 pfu/ml and the “Ad5 ocular viral titer, individual eye” value (D 7) was 0 pfu/ml (6×) and 25 pfu/ml and 5 pfu/ml (2×) and 10 pfu/ml. For the same compound, the “Ad5 ocular viral titer, individual eye” value (D 9) was 0 pfu/ml, the “Ad5 ocular viral titer, individual eye” value (D 11) was 0 pfu/ml and the “Ad5 ocular viral titer, individual eye” value (D 14) was 0 pfu/ml. For the same compound, the “Positive Cultures per Total” value (Day 0, before treatment) was 10/10, the “Positive Cultures per Total, percent” value (Day 0, before treatment) was 100% and the “Positive Cultures per Total” value (Day 1) was 10/10. The “Positive Cultures per Total, percent” value (Day 1) was 100%, the “Positive Cultures per Total” value (Day 3) was 10/10 and the “Positive Cultures per Total, percent” value (Day 3) was 100%. For the same compound, the “Positive Cultures per Total” value (Day 4) was 8/10, the “Positive Cultures per Total, percent” value (Day 4) was 80% and the “Positive Cultures per Total” value (Day 5) was 8/10. For the same compound, the “Positive Cultures per Total, percent” value (Day 5) was 80%, the “Positive Cultures per Total” value (Day 7) was 4/10 and the “Positive Cultures per Total, percent” value (Day 7) was 40% and 80%. For the same compound, the “Positive Cultures per Total” value (Day 9) was 0/10, the “Positive Cultures per Total, percent” value (Day 9) was 0% and the “Positive Cultures per Total” value (Day 11) was 0/10. For the same compound, the “Positive Cultures per Total, percent” value (Day 11) was 0%, the “Positive Cultures per Total” value (Day 14) was 0/10 and the “Positive Cultures per Total, percent” value (Day 14) was 0%. The “Positive Cultures per Total, Total” value [1] was 36/40, the “Positive Cultures per Total, Total (%)” value [1] was 90% and the “Positive Cultures per Total, Total” value (Days 1-14) was 40/80. For the same compound, the “Positive Cultures per Total, Total (%)” value (Days 1-14) was 50%, the “Positive Cultures per Total, Total” value [2] was 4/40 and the “Positive Cultures per Total, Total (%)” value [2] was 10%. For the same compound, the “Mean Combined Ocular Titers Days 1-5, comparison” value (Early Phase) was “significantly lower Mean Combined Ocular Titers Days 1-5 compared with the saline Control”, the “Mean Combined Ocular Titers Days 7-14, comparison” value (Late Phase) was “significantly lower Mean Combined Ocular Titers Days 7-14 compared with the saline Control” and the “Positive Cultures per Total Days 7-14, comparison” value (Late Phase) was “significantly fewer Positive Cultures per Total Days 7-14 compared with 10% IG and the saline Control”. For the same compound, the “Mean Daily Ocular Titers, comparison” value (days as stated) was “significantly lower titer on Day 7 compared the saline Control”, the “Antiviral efficacy, conclusion” value (rabbit, in vivo) was “demonstrated its proven antiviral efficacy” and the “Mean Duration of Shedding, comparison” value (rabbit, in vivo) was “significantly shorter mean durations of shedding compared with the saline Control; also recorded: significantly shorter mean duration of shedding compared with 10% IG”. For the same compound, the “Positive Cultures per Total Days 1-14, comparison” value (rabbit, in vivo) was “significantly fewer Positive Cultures per Total Days 1-14 compared with the saline Control”.
